Measured values reported in patent US5391751A, “2,2-dimethylchromene derivatives, process for their preparation and pharmaceutical compositions in which they are present” (priority 1987, dated 1995).

Assays:
isolated rat portal vein = experiment: Isolated rat portal vein: inhibition of spontaneous contractile activities; set-up: species or system rat (male Sprague Dawley); conditions: 0.25 h, 37° C., 15 min per concentration
Method: Male Sprague Dawley rats (250-300 g) are stunned and then bled after their throats have been cut. The portal vein, ligated in situ at two points 15 mm apart, is isolated, cut longitudinally and then mounted vertically in an experimental cell containing a physiological solution, at 37° C., of the following composition (mmol/1): NaCl:137; KC1:5.4; MgCl2 :1.05; CaCl2 :[…]; NaH2 PO4 :12; NaHCO3 :[…]; glucose: 11.5, into which a mixture of gases containing 95% of oxygen and 5% of carbon dioxide is bubbled.
The vein is subjected to a tension of 500 mg. After a period of stabilization (about 1 h 30 min), the spontaneous contractile activities are recorded with the aid of an isometric sensor. Each measurement is performed successively on 4 preparations.
The results are expressed in the form of the molar concentrations which causes a 50 per cent inhibition of the spontaneous contractile activities (IC50).

[1] = tested on: spontaneously hypertensive rats (SHR); experiment: Antihypertensive activity on vigilant spontaneously hypertensive rats (SHR); format: in vivo, rat (male SHR, Wistar strain)
Method: The experiment is performed on male SHR (of the Wistar strain) aged between 11 and 12 weeks; under pentobarbital anesthesia, a catheter is implanted in a carotid artery on the day before the experiment. In the experiment, the diastolic pressure (DP) and systolic pressure (SP) of the vigilant animals are recorded continuously 1 hour before and up to 2 hours after administration of the product. The heart rate (HR) is determined from the pulse pressure and recorded continuously for the same time.
The products were administered orally in a volume of 2 ml per 100 g of body weight after suspension in a 5% aqueous solution of gum arabic.

vigilant dogs = experiment: Antiarrhythmic activity on vigilant dogs (acute infarction); format: in vivo, dog; conditions: orally, 0.03 mg/kg and 0.1 mg/kg
Method: The method used is the one described by Dupuis et al. (Br. J. Pharmacol., 1976, 58, p. 409), in which an acute infarction is caused by the insertion of a copper spiral into the coronary circulation, with the thorax closed off. The ECG is measured by telemetry and the extrasystoles are analyzed and counted automatically While the animal is being monitored by an internal television circuit. The products were administered orally to animals presenting at least 50 per cent of extrasystoles.

[2] = Overall comparison of activity, toxicity and therapeutic index with reference product; conditions: in the majority of the tests
mice = experiment: in vivo; format: in vivo; conditions: oral administration
in vivo = format: in vivo; conditions: mouse, in vivo; mice, oral administration
[3] = tested on: guinea-pig papillary muscle; experiment: Guinea-pig papillary muscle: ventricular action potential (microelectrode method); set-up: species or system guinea-pig (male Albino Charles River); conditions: for IC50: Cavia porcellus, 0.5 h, 36° C., 60 beats per minute, 30 minutes of perfusion per concentration, read-out: IC50: concentration which produces a 50 per cent reduction in the duration of the action potential
Method: Male Albino Charles River guinea-pigs (300-400 g) are stunned and then bled after their throats have been cut. The heart is isolated and opened and the right papillary muscle is excised and then kept alive in an experimental cell containing a physiological solution at 36° C. (composition described above).
The preparation is stimulated with the aid of a bipolar electrode connected to a stimulator (frequency =60 beats per minute). The ventricular action potential is measured by the conventional microelectrode method. The characteristic parameters were measured on the action potentials (AP) before and after the introduction of the test product at 3 successive increasing concentrations (30 minutes of perfusion per concentration). The concentration which produces a 50 per cent reduction in the duration of the AP is indicated (IC50).

## CC1(C)C=C(n2ccccc2=O)c2cc(Br)ccc2O1 [SR 45374, 6-Bromo-4-(1,2-dihydro-2-oxopyrid-l-yl)-2,2dimethylchromene]
Isolated rat portal vein
  IC50: 7.9 nM
[1]; 0.10 mg/kg p.o.
  Duration of the effect: > 120 min
  Maximum decrease in mean blood pressure (± s.e.): 32 ± 6 mm of mercury

## CC1(C)C=C(n2ccccc2=O)c2cc(C#N)ccc2O1 [SR 44866, 6-Cyano-4-(1,2-dihydro-2-oxopyrid-1-yl)-2,2-dimethylchromene]
Vigilant dogs
  Antiarrhythmic activity (reducing the number of extrasystoles or restoring a sinus rhythm): substantial antiarrhythmic activity
Isolated rat portal vein
  IC50: 7.1 nM
[1]; 0.02 mg/kg p.o.
  Duration of the effect: 90 min
  Maximum decrease in mean blood pressure (± s.e.): 34 ± 6 mm of mercury
[1]; 0.03 mg/kg p.o.
  Duration of the effect: > 120 min
  Maximum decrease in mean blood pressure (± s.e.): 41 ± 6 mm of mercury
[2]
  Activity relative to product A: about 10 times
mice
  LD0: 500 mg/kg
In vivo
  LD50: 1000 mg/kg
[3]
  IC50: 1.5 µM
[3]; versus product A
  Concentration producing 50 per cent reduction in action potential duration: times lower than that of product A: 10 times

## CC1(C)C=C(n2ccccc2=O)c2cc(Cl)ccc2O1 [SR 45435, 6-Chloro-4-(1,2-dihydro-2-oxopyrid-1-yl)-2,2dimethylchromene]
Isolated rat portal vein
  IC50: 8 nM
[1]; 0.20 mg/kg p.o.
  Duration of the effect: > 120 min
  Maximum decrease in mean blood pressure (± s.e.): 70 ± 8 mm of mercury

## CC(=O)c1ccc2c(c1)C(n1ccccc1=O)=CC(C)(C)O2 [SR 45510, 6-Acetyl-4-(1,2-dihydro-2-oxopyrid-1-yl)-2,2-dimethylchromene]
Isolated rat portal vein
  IC50: 11 nM

## CC1(C)C=C(n2ccccc2=O)c2cc([N+](=O)[O-])ccc2O1 [SR 45509, 4-(1,2-Dihydro-2-oxopyrid-1-yl)-2,2-dimethyl-6-nitrochromene]
Isolated rat portal vein
  IC50: 2.2 nM

## CC1(C)Oc2ccc([N+](=O)[O-])cc2[C@@H](n2ccccc2=O)[C@@H]1O (relative stereo) [Product F, trans-4-(1,2-dihydro-2-oxopyrid-1-yl)-2,2-dimethyl-6-nitrochroman-3-ol]
Isolated rat portal vein
  IC50: 16 nM

## CC1(C)Oc2ccc(C#N)cc2[C@@H](N2CCCC2=O)[C@@H]1O (relative stereo) [Product A, trans-6-cyano-4-(2-oxopyrrolidin-1-yl)-2,2-dimethyl-chroman-3-ol, reference compound]
Isolated rat portal vein
  IC50: 68 nM
[1]; 0.10 mg/kg p.o.
  Duration of the effect: 60 min
  Maximum decrease in mean blood pressure (± s.e.): 30 ± 10 mm of mercury
[1]; 0.20 mg/kg p.o.
  Duration of the effect: 90 min
  Maximum decrease in mean blood pressure (± s.e.): 56 ± 11 mm of mercury
In vivo
  LD50: 500 to 1000 mg/kg
[3]
  IC50: 16 µM

## CC(=O)c1ccc2c(c1)[C@@H](n1ccccc1=O)[C@H](O)C(C)(C)O2 (relative stereo) [Product G, trans-6-acetyl-4-(1,2-dihydro-2-oxopyrid-1-yl)-2,2-dimethylchroman-3-ol]
Isolated rat portal vein
  IC50: 190 nM

## CC1(C)Oc2ccc(Br)cc2[C@@H](n2ccccc2=O)[C@@H]1O (relative stereo) [Product D, trans-6-bromo-4-(1,2-dihydro-2-oxopyrid-1-yl)-2,2-dimethylchroman-3-ol]
Isolated rat portal vein
  IC50: 250 nM

## CC1(C)C=C(N2CCCC2=O)c2cc(C#N)ccc2O1 [Product B, 6-cyano-4-(2-oxopyrrolidin-1-yl)-2,2-dimethylchromene]
Isolated rat portal vein
  IC50: 70 nM

## CC1(C)Oc2ccc(Cl)cc2[C@@H](n2ccccc2=O)[C@@H]1O (relative stereo) [Product E, trans-6-chloro-4-(1,2-dihydro-2-oxopyrid-1-yl)-2,2-dimethylchroman-3-ol]
Isolated rat portal vein
  IC50: 190 nM

## CC1(C)Oc2ccc(C#N)cc2[C@@H](n2ccccc2=O)[C@@H]1O (relative stereo) [Product C, trans-6-cyano-4-(1,2-dihydro-2-oxopyrid-1-yl)-2,2-dimethylchroman-3-ol, reference compound]
Isolated rat portal vein
  IC50: 90 nM
[3]
  IC50: 20 µM
